Experimental data: PubChem BioAssay (NCI)
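GI50 marks 50% less growth. Definition used: TGI = concentration required for complete inhibition of growth.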

What was measured:
Assay in all cases: inhibition of tumour cell growth, NCI panel, 384-well format
786-0 renal = system: 786-0 renal
A498 renal = system: A498 renal
A549 NSCLC = system: A549 NSCLC
ACHN renal = system: ACHN renal
BT-549 breast = system: BT-549 breast
CAKI-1 renal = system: CAKI-1 renal
CCRF-CEM leukemia = system: CCRF-CEM leukemia
COLO 205 colon = system: COLO 205 colon
DU-145 prostate = system: DU-145 prostate
HCC-2998 colon = system: HCC-2998 colon
HCT-116 colon = system: HCT-116 colon
HCT-15 colon = system: HCT-15 colon
HL-60(TB) leukemia = system: HL-60(TB) leukemia
HOP-62 NSCLC = system: HOP-62 NSCLC
HOP-92 NSCLC = system: HOP-92 NSCLC
HT29 colon = system: HT29 colon
IGROV1 ovarian = system: IGROV1 ovarian
K-562 leukemia = system: K-562 leukemia
KM12 colon = system: KM12 colon
LOX IMVI melanoma = system: LOX IMVI melanoma
M14 melanoma = system: M14 melanoma
MALME-3M melanoma = system: MALME-3M melanoma
MCF7 breast = system: MCF7 breast
MDA-MB-231 breast = system: MDA-MB-231 breast
MDA-MB-435 melanoma = system: MDA-MB-435 melanoma
MDA-MB-468 breast = system: MDA-MB-468 breast
MOLT-4 leukemia = system: MOLT-4 leukemia
NCI-H226 lung = system: NCI-H226 lung
NCI-H23 lung = system: NCI-H23 lung
NCI-H322M lung = system: NCI-H322M lung
NCI-H460 NSCLC = system: NCI-H460 NSCLC
NCI-H522 lung = system: NCI-H522 lung
NCI/ADR-RES ovarian = system: NCI/ADR-RES ovarian
OVCAR-3 ovarian = system: OVCAR-3 ovarian
OVCAR-4 ovarian = system: OVCAR-4 ovarian
OVCAR-5 ovarian = system: OVCAR-5 ovarian
OVCAR-8 ovarian = system: OVCAR-8 ovarian
PC-3 prostate = system: PC-3 prostate
RPMI-8226 leukemia = system: RPMI-8226 leukemia
RXF 393 renal = system: RXF 393 renal
SF-268 CNS = system: SF-268 CNS
SF-295 CNS = system: SF-295 CNS
SF-539 CNS = system: SF-539 CNS
SK-MEL-2 melanoma = system: SK-MEL-2 melanoma
SK-MEL-28 melanoma = system: SK-MEL-28 melanoma
SK-MEL-5 melanoma = system: SK-MEL-5 melanoma
SK-OV-3 ovarian = system: SK-OV-3 ovarian
SN12C renal = system: SN12C renal
SNB-19 CNS = system: SNB-19 CNS
SR leukemia = system: SR leukemia
SW-620 colon = system: SW-620 colon
T-47D breast = system: T-47D breast
TK-10 renal = system: TK-10 renal
U251 glioblastoma = system: U251 glioblastoma
UACC-257 melanoma = system: UACC-257 melanoma
UACC-62 melanoma = system: UACC-62 melanoma

Compound: Cc1c(CN2CCC(Nc3ncnc4sc(CC(F)(F)F)cc34)CC2)ccc2c1cc(C#N)n2Cc1cn[nH]c1
- GI50 ([…]-0 renal): 1160 nM
- TGI (786-0 renal): 2390 nM
- GI50 (A498 renal): 1150 nM
- TGI (A498 renal): 2370 nM
- GI50 (A549 NSCLC): 1350 nM
- TGI (A549 NSCLC): 2670 nM
- GI50 (ACHN renal): 1390 nM
- TGI (ACHN renal): 2690 nM
- GI50 (BT-549 breast): 901 nM
- TGI (BT-549 breast): 2120 nM
- GI50 (CAKI-1 renal): 1420 nM
- TGI (CAKI-1 renal): 2730 nM
- GI50 (CCRF-CEM leukemia): 668 nM
- TGI (CCRF-CEM leukemia): 1960 nM
- GI50 (COLO 205 colon): 1420 nM
- TGI (COLO 205 colon): 2740 nM
- GI50 (DU-145 prostate): 1700 nM
- TGI (DU-145 prostate): 3090 nM
- GI50 (HCC-2998 colon): 391 nM
- TGI (HCC-2998 colon): 1350 nM
- GI50 (HCT-116 colon): 417 nM
- TGI (HCT-116 colon): 1610 nM
- GI50 (HCT-15 colon): 1230 nM
- TGI (HCT-15 colon): 2490 nM
- GI50 (HL-60(TB) leukemia): 627 nM
- TGI (HL-60(TB) leukemia): 1680 nM
- GI50 (HOP-62 NSCLC): 1160 nM
- TGI (HOP-62 NSCLC): 2390 nM
- GI50 (HOP-92 NSCLC): 1330 nM
- TGI (HOP-92 NSCLC): 2610 nM
- GI50 (HT29 colon): 318 nM
- TGI (HT29 colon): 1270 nM
- GI50 (IGROV1 ovarian): 1350 nM
- TGI (IGROV1 ovarian): 3400 nM
- GI50 (K-562 leukemia): 295 nM
- TGI (K-562 leukemia): 1110 nM
- GI50 (KM12 colon): 1280 nM
- TGI (KM12 colon): 2560 nM
- GI50 (LOX IMVI melanoma): 2060 nM
- TGI (LOX IMVI melanoma): 3490 nM
- GI50 (M14 melanoma): 1620 nM
- TGI (M14 melanoma): 2980 nM
- GI50 (MALME-3M melanoma): 1360 nM
- TGI (MALME-3M melanoma): 2650 nM
- GI50 (MCF7 breast): 1020 nM
- TGI (MCF7 breast): 2190 nM
- GI50 (MDA-MB-231 breast): 1360 nM
- TGI (MDA-MB-231 breast): 2650 nM
- GI50 (MDA-MB-435 melanoma): 1860 nM
- TGI (MDA-MB-435 melanoma): 3270 nM
- GI50 (MDA-MB-468 breast): 327 nM
- TGI (MDA-MB-468 breast): 1130 nM
- GI50 (MOLT-4 leukemia): 486 nM
- TGI (MOLT-4 leukemia): 1690 nM
- GI50 (NCI-H226 lung): 1300 nM
- TGI (NCI-H226 lung): 2610 nM
- GI50 (NCI-H23 lung): 275 nM
- TGI (NCI-H23 lung): 1420 nM
- GI50 (NCI-H322M lung): 954 nM
- TGI (NCI-H322M lung): 2150 nM
- GI50 (NCI-H460 NSCLC): 409 nM
- TGI (NCI-H460 NSCLC): 1630 nM
- GI50 (NCI-H522 lung): 1390 nM
- TGI (NCI-H522 lung): 2680 nM
- GI50 (NCI/ADR-RES ovarian): 1580 nM
- TGI (NCI/ADR-RES ovarian): 2940 nM
- GI50 (OVCAR-3 ovarian): 1230 nM
- TGI (OVCAR-3 ovarian): 2480 nM
- GI50 (OVCAR-4 ovarian): 930 nM
- TGI (OVCAR-4 ovarian): 2140 nM
- GI50 (OVCAR-5 ovarian): 1730 nM
- TGI (OVCAR-5 ovarian): 3120 nM
- GI50 (OVCAR-8 ovarian): 1500 nM
- TGI (OVCAR-8 ovarian): 2840 nM
- GI50 (PC-3 prostate): 1300 nM
- TGI (PC-3 prostate): 2580 nM
- GI50 (RPMI-8226 leukemia): 107 nM
- TGI (RPMI-8226 leukemia): 770 nM
- GI50 (RXF 393 renal): 219 nM
- TGI (RXF 393 renal): 709 nM
- GI50 (SF-268 CNS): 1310 nM
- TGI (SF-268 CNS): 2590 nM
- GI50 (SF-295 CNS): 1420 nM
- TGI (SF-295 CNS): 2730 nM
- GI50 (SF-539 CNS): 1330 nM
- TGI (SF-539 CNS): 2620 nM
- GI50 (SK-MEL-2 melanoma): 1330 nM
- TGI (SK-MEL-2 melanoma): 2600 nM
- GI50 (SK-MEL-28 melanoma): 1850 nM
- TGI (SK-MEL-28 melanoma): 3260 nM
- GI50 (SK-MEL-5 melanoma): 402 nM
- TGI (SK-MEL-5 melanoma): 1540 nM
- GI50 (SK-OV-3 ovarian): 1330 nM
- TGI (SK-OV-3 ovarian): 2610 nM
- GI50 (SN12C renal): 1300 nM
- TGI (SN12C renal): 2580 nM
- GI50 (SNB-19 CNS): 1670 nM
- TGI (SNB-19 CNS): 3040 nM
- GI50 (SR leukemia): 137 nM
- TGI (SR leukemia): 279 nM
- GI50 (SW-620 colon): 1310 nM
- TGI (SW-620 colon): 2600 nM
- GI50 (T-47D breast): 247 nM
- TGI (T-47D breast): 1440 nM
- GI50 (TK-10 renal): 1330 nM
- TGI (TK-10 renal): 2620 nM
- GI50 (U251 glioblastoma): 730 nM
- TGI (U251 glioblastoma): 2000 nM
- GI50 (UACC-257 melanoma): 772 nM
- TGI (UACC-257 melanoma): 2060 nM
- GI50 (UACC-62 melanoma): 1650 nM
- TGI (UACC-62 melanoma): 3020 nM
